Values of other authors, collected in patent US20070142447A1, “Veterinary composition comprising an arylpyrazole and a nitroenamine with enhanced antiparasitic activity” (Intervet International B.V., priority 2004, published 2007).
Read-outs that look alike come from different tables or passages of the source.

Legend:
[1] = cats
[2] = test system: fleas; conditions: after 72 hours
[3] = dogs

For `CCN(Cc1ccc(Cl)nc1)/C(=C/[N+](=O)[O-])NC` [nitenpyram, (E)-N-(6-chloro-pyridin-3-ylmethyl)-N-ethyl-N-methyl-2-methyl-2-nitrovinylidenediamine], the “half-life in the blood” value [1] is given as 7.7 h, the mean residence time [1] is given as 10.2 h and the “lethality of nitenpyram levels in host blood to fleas” value [2] is given as “not lethal to fleas”. The “half-life in the blood” value [3] was 2.8 h and the mean residence time [3] was 4.1 h.
